Measured values taken from US20220354818A1, “METHODS FOR TREATING BRAIN INJURY OR COGNITIVE DYSFUNCTION BY PHARMACOLOGICAL ENHANCMENT OF M-TYPE POTASSIUM ION CURRENTS IN NEURONS” (Advanced Neuroresearch Therapeutics LLC, priority 2019, published 2022).

What was measured:
[1] = system: C57BL/6J mice subjected to controlled closed cortical impact (CCCI); assay: Post-traumatic seizures after CCCI blunt TBI, video/EEG monitoring; type: in vivo, mouse; settings: RTG 1.2 mg/kg i.p. 30 minutes post-TBI, video/EEG three days starting 24 hours after injury
Text: Male and female mice were used for all experiments performed, except for GFAP, Iba1 and Fluro-Jade B histology experiments and for PSVue794 and Evans Blues imaging.
Animals were divided randomly among cohorts so that each cage included animals from all treatments.
The CCCI model was used to generate reproducible moderate blunt brain injury. This model has the advantages of producing focal contusion in which the skull remains intact. CCCI can most closely simulate blunt-head traumas resulting from falls, physical violence, or motor vehicle accidents and particularly in rodent models often produces spontaneous seizures within 24 hours.
A single trauma per mouse was employed. CCCI was delivered by a pneumatic impact device (Leica Biosystems) following a protocol previously published. A cylindrical probe of 5 mm diameter was used to deliver a calibrated impact to the skull, 1 mm depth over the right parietal cortex and a small portion of the caudal end of the right frontal cortex, at a velocity of 4.5 m/s to produce a moderate TBI. […]
To quantify seizure frequency and determine seizure susceptibility, mice of each cohort were implanted with electroencephalogram (EEG) electrodes 24 hours after CCCI or Sham. […]
Computer-assisted cortical EEGs was recorded and reviewed for the presence of seizures and epileptiform spikes. […] Detected events were visually confirmed by blinded experimenters.

c-Fos = c-Fos expression (FosTRAP mice) in hippocampal CA1 after blunt TBI; type: in vivo, mouse; settings: tamoxifen 30 days after single blunt TBI; acute RTG treatment
Text: Transgenic “FosTRAP” mice were used to study neuronal activity in sub-cortical regions following blunt TBI (the CCCI model as described above). These mice express the fluorescent protein, tdTomato, under the control of the neuronal promoter c-Fos, an “early intermediate gene” transcriptional factor that correlates well with heavy neuronal activity. Accordingly, whenever neurons express c-Fos, tdTomato is also expressed, allowing for an optical reporter of prior neuronal activity.
Because these transgenic mice express tdTopmato via the tamoxifen-inducible Cre/IoxP system, mice were injected (i.p.) with tamoxifen (75 mg/kg) 30 days after a single blunt TBI (i.e., CCCI), and samples were collected 5 days after injection.
Slices (200 μm) of each collected sample were infused with 4% (w/v) PFA for 10 minutes at RT, washed 5× in PBS and blocked with 8% (v/v) donkey serum (Sigma-Aldrich) diluted in PBS, 0.1% (v/v) Triton X-100 (Sigma-Aldrich), and 0.1% (v/v) Tween 20 (Thermo Fisher Scientific). […] A Nikon Eclipse FN1 microscope with 10× and 40× Plan Fluor objectives was used for detection of fluorescence. […] Cell count was obtained by non-biased automatic quantification with ImageJ. […] ROIs were determined automatically using the “analyze particles” function of ImageJ, with size set to 200-8000 and circularity set to 0.00-1.00.

[2] = system: mice subjected to one blunt TBI (CCCI); assay: Dosage optimization: spontaneous myoclonic seizures after one blunt TBI (CCCI); type: in vivo, mouse; settings: RTG 0.3, 1 and 3 mg/kg i.p. once 30 minutes post-TBI; second to fourth day
Procedure: An additional KCNQ2/3-specific compound, RL648_81 was also administered in the same manner (0.03 mg/kg, 0.1 mg/kg, and 0.3 mg/kg). […] To monitor the occurrence of spontaneous myoclonic seizures after, the mice were video/EEG monitored from the second to the fourth day after the TBI (72 hours total).

[3] = system: mice subjected to one blunt TBI, PTZ; assay: Treatment window study: PTZ-induced seizure duration after one blunt TBI; type: in vivo, mouse
Procedure: Mice were video-EEG monitored for 24 hours after stimulation with a normally sub-seizure threshold dose of PTZ (35 mg/kg; s.c.) administered on the fifth day post-TBI, which caused the mice to respond with prolonged seizures. […] A TBI cohort (vehicle only) was also assessed for control purposes.

sympathetic neuron = assay: Action potential firing in a sympathetic neuron, current-clamp
Text: Various currents are applied in “current-clamp” mode 44 ranging from 50 pA to −100 pA, and the resulting AP firing recorded.

CCOC(=O)Nc1ccc(NCc2ccc(F)cc2)cc1N [RTG, 2-amino-4-(4-fluorobenzylamino)-1-ethoxycarbonylaminobenzene]
mice displaying post-traumatic seizures [1]: no animal treated with RTG post-TBI displayed seizures and zero
c-Fos expression, hippocampal CA1 (c-Fos): significantly less c-Fos than the TBI cohort
occurrence of myoclonic seizures post-TBI [2]: significantly reduced the occurrence of myoclonic seizures
PTZ-induced seizure duration ([3]; RTG 1 mg/kg i.p. at 1-hour post-TBI): significantly reduced induced seizure duration
PTZ-induced seizure duration ([3]; RTG 1 mg/kg i.p. at 2 hours and 6 hours post-TBI): Lesser effects were observed
action potential firing in response to stimuli (sympathetic neuron): Complete silencing of the neuron occurs
